Test system: DYT1 knockin (Tor1a^delGAG/+) murine embryonic fibroblasts (MEFs)
Assay: Untargeted LC/MS/MS proteomics of EVs from DYT1 MEFs exposed 24 hours to drug, compared with untreated DYT1 (Het) MEFs
Assay type: cell-based, mouse
Method: Methods for isolation and purification of exosomes and extracellular vesicles (EV) were extensively reviewed. Experiments were performed to arrive at a robust and reproducible protocol. The protocol used herein is that set forth in Théry et al, 2006, which is incorporated by reference for it teaching of this protocol. This protocol involves depleting serum-derived EVs from cell culture media by overnight ultracentrifugation and exchanging media for 1% FBS EV-depleted media. Media is then collected from cells following a 24-hour conditioning period and EVs are isolated by 18-hour ultracentrifugation at 100,000 g (FIG. 1A).
EVs were isolated from media of cultured murine embryonic fibroblasts (MEFs) prepared in-house according to protocols described by Xu 2005 from DYT1 knockin mice (Tor1a^delGAG/+) (Goodchild R E, et al. (2005) Neuron. 48:923-932) and littermate wild-type (WT) controls. The cultured MEFs from the DYT1 mice were exposed for 24 hours to Ritonavir (RTV) while the MEFs from WT mice were exposed to vehicle, ISRIB, or Salubrinal (SAL). The EVs isolated from these WT cells and DYT1 were characterized by untargeted proteomics and RNA-seq to identify differentially expressed proteins and RNAs as candidate biomarkers. Experimenter and Proteomics core staff were blinded to genotype of cell cultures throughout preparation and analysis phases.
Samples were first normalized to 20 μg and spiked with undigested casein at a total of 40 fmol/μg, 80 fmol/μg, or 160 fmol/μg, then reduced with 10 mM dithiolthreitol for 30 minute at 80° C. and alkylated with 20 mM iodoacetamide for 30 minutes at room temperature. Next, the samples were supplemented with a final concentration of 1.2% phosphoric acid and 741 μL of S-Trap (Protifi) binding buffer (90% MeOH/100 mM […]). Proteins were trapped on the S-Trap, digested using 20 ng/μL sequencing grade trypsin (Promega) for 1 hour at 47° C., and eluted using 50 mM TEAB, followed by 0.2% FA, and lastly using 50% CAN/0.2% FA. All samples were then lyophilized to dryness and resuspended in 40 μL 1% TFA/2% acetonitrile containing 12.5 fmol/μL yeast alcohol dehydrogenase (ADH_YEAST). A QC Pool was created from 3 uL of each sample. All QC Pools were run periodically throughout the acquisition period.
Quantitative LC/MS/MS was performed on 2 μL of each sample, using a nanoAcquity UPLC system (Waters Corp) coupled to a Thermo Orbitrap Fusion Lumos high resolution accurate mass tandem mass spectrometer (Thermo) via a nanoelectrospray ionization source. Briefly, the sample was first trapped on a Symmetry C18 20 mm×180 μm trapping column (5 μL/min at 99.9/0.1 v/v water/acetonitrile), after which the analytical separation was performed using a 1.8 μm Acquity HSS T3 C18 75 μm×250 mm column (Waters Corp.) with a 90 minute linear gradient of 5% to 30% acetonitrile with 0.1% formic acid at a flow rate of 400 nanoliters/minute (nL/min) with a column temperature of 55° C. Data collection on the Fusion Lumos mass spectrometer was performed in a data-dependent acquisition (DDA) mode of acquisition with a r=120,000 (@ m/z 200) full MS scan from m/z 375-1500 with a target AGC value of 2e5 ions. MS/MS scans were acquired at Rapid scan rate (Ion Trap) with an AGC target of 5e3 ions and a max injection time of 100 ms. The total cycle time for MS and MS/MS scans was 2 seconds. A 20 second dynamic exclusion was employed to increase depth of coverage. The total analysis cycle time for each sample injection was approximately 2 hours.

CC(C)c1nc(CN(C)C(=O)N[C@H](C(=O)N[C@@H](Cc2ccccc2)C[C@H](O)[C@H](Cc2ccccc2)NC(=O)OCc2cncs2)C(C)C)cs1 [RTV, Ritonavir]
direction of modulated EV protein expression (DYT1 cells, 363 proteins of the DYT1 Genotype Dependent Differences subset): modulated expression in a therapeutic direction
Abs Z Score Sum (Geno + RTV) (EV protein A2AVA0 Sushi, von Willebrand factor type A, EGF and pentraxin domain-containing protein 1): 2.64
Abs Z Score Sum (Geno + RTV) (EV protein Akr1b1 (P45376)): 8.44
Abs Z Score Sum (Geno + RTV) (EV protein Aldh2 (P47738)): 25.29
RTV Direction Opposite dE? (EV protein Aldh2 (P47738)): yes
Abs Z Score Sum (Geno + RTV) (EV protein C1qtnf3 (Q9..)): 6.95
Abs Z Score Sum (Geno + RTV) (EV protein Cnn3 (Q9DAW9)): 13.28
RTV Direction Opposite dE? (EV protein Cnn3 (Q9DAW9)): yes
Abs Z Score Sum (Geno + RTV) (EV protein Cnot1 (Q6ZQ08)): 12.30
RTV Direction Opposite dE? (EV protein Cnot1 (Q6ZQ08)): yes
Abs Z Score Sum (Geno + RTV) (EV protein Col5A1 Q88207): 5.55
Abs Z Score Sum (Geno + RTV) (EV protein Coph2 Q55029): 9.40
Abs Z Score Sum (Geno + RTV) (EV protein Cryab (P23927)): 5.18
RTV Direction Opposite dE? (EV protein Cryab (P23927)): yes
Abs Z Score Sum (Geno + RTV) (EV protein Cxadr (P97792)): 16.73
RTV Direction Opposite dE? (EV protein Cxadr (P97792)): yes
RTV Direction Opposite dE? (EV protein D3YXG0): yes
RTV Direction Opposite dE? (EV protein Dars (Q922B2)): yes
RTV Direction Opposite dE? (EV protein Dctn2 (Q99KJ8)): yes
Abs Z Score Sum (Geno + RTV) (EV protein Ddx3x (Q62167)): 5.09
Abs Z Score Sum (Geno + RTV) (EV protein Ddx5 (Q61656)): 8.05
Abs Z Score Sum (Geno + RTV) (EV protein Ddx39b (Q9Z1N5)): 16.28
RTV Direction Opposite dE? (EV protein Ddx39b (Q9Z1N5)): yes
Abs Z Score Sum (Geno + RTV) (EV protein Dhx9 (Q70133)): 9.00
Abs Z Score Sum (Geno + RTV) (EV protein Dhx15 (Q35286)): 7.27
Abs Z Score Sum (Geno + RTV) (EV protein Efemp1 Q8BPB5): 8.34
RTV Direction Opposite dE? (EV protein Esyt1 (Q3U7R1)): yes
Abs Z Score Sum (Geno + RTV) (EV protein Exoc4 (Q35382)): 14.59
RTV Direction Opposite dE? (EV protein Exoc4 (Q35382)): yes
Abs Z Score Sum (Geno + RTV) (EV protein Extended synaptotagmin-1 (Q3..)): 4.61
Abs Z Score Sum (Geno + RTV) (EV protein Fth1 P09528): 12.58
Abs Z Score Sum (Geno + RTV) (EV protein Fus (P56959)): 14.88
RTV Direction Opposite dE? (EV protein Fus (P56959)): yes
Abs Z Score Sum (Geno + RTV) (EV protein Gsto1 (Q09131)): 8.09
RTV Direction Opposite dE? (EV protein Gsto1 (Q09131)): yes
Abs Z Score Sum (Geno + RTV) (EV protein Hmen1 D3YXG0): 11.51
RTV Direction Opposite dE? (EV protein Hnrnpf (Q9Z2X1)): yes
RTV Direction Opposite dE? (EV protein Hnrnph1 (Q35737)): yes
Abs Z Score Sum (Geno + RTV) (EV protein Hnrnpl Q8R081): 9.12
Abs Z Score Sum (Geno + RTV) (EV protein Idh2 (P54071)): 26.73
Abs Z Score Sum (Geno + RTV) (EV protein Igf1r Q60751): 4.86
RTV Direction Opposite dE? (EV protein Impa1 (Q55023)): yes
Abs Z Score Sum (Geno + RTV) (EV protein Ipo7 (Q9EPL8)): 5.25
RTV Direction Opposite dE? (EV protein Ipo7 (Q9EPL8)): yes
Abs Z Score Sum (Geno + RTV) (EV protein Ipo11 (Q8K2V6)): 13.53
RTV Direction Opposite dE? (EV protein Ipo11 (Q8K2V6)): yes
Abs Z Score Sum (Geno + RTV) (EV protein Itgb3 (Q54890)): 4.87
RTV Direction Opposite dE? (EV protein Itgb3 (Q54890)): yes
Abs Z Score Sum (Geno + RTV) (EV protein Itm2b Q89051): 17.16
Abs Z Score Sum (Geno + RTV) (EV protein Itpa (Q9D892)): 23.68
RTV Direction Opposite dE? (EV protein Itpa (Q9D892)): yes
Abs Z Score Sum (Geno + RTV) (EV protein Kpna4 (Q35343)): 14.28
RTV Direction Opposite dE? (EV protein Kpna4 (Q35343)): yes
Abs Z Score Sum (Geno + RTV) (EV protein Lipg (Q9WVG5)): 11.27
Abs Z Score Sum (Geno + RTV) (EV protein Mdk (P12025)): 7.88
RTV Direction Opposite dE? (EV protein Mdk (P12025)): yes
Abs Z Score Sum (Geno + RTV) (EV protein Mem2 P97310): 7.66
Abs Z Score Sum (Geno + RTV) (EV protein Mtap (Q9CQ65)): 8.12
RTV Direction Opposite dE? (EV protein Myo18a): yes
Abs Z Score Sum (Geno + RTV) (EV protein Myo18a (Q9JM..)): 7.78
Abs Z Score Sum (Geno + RTV) (EV protein Nap114 Q78ZA7): 50.77
Abs Z Score Sum (Geno + RTV) (EV protein Nrbp1 (Q99..)): 9.54
RTV Direction Opposite dE? (EV protein Nrbp1 (Q99J45)): yes
Abs Z Score Sum (Geno + RTV) (EV protein Otub1 (Q7TQ..)): 11.30
RTV Direction Opposite dE? (EV protein P09528, Ferritin heavy chain): yes
RTV Direction Opposite dE? (EV protein P27612, Phospholipase A-2-activating protein): yes
Abs Z Score Sum (Geno + RTV) (EV protein P48678 Prelamin-A C): 7.44
RTV Direction Opposite dE? (EV protein P61089, Ubiquitin-conjugating enzyme): yes
Abs Z Score Sum (Geno + RTV) (EV protein Pdia4 (P08003)): 5.92
RTV Direction Opposite dE? (EV protein Pdia4 (P08003)): yes
Abs Z Score Sum (Geno + RTV) (EV protein Penk (P22005)): 4.31
RTV Direction Opposite dE? (EV protein Penk (P22005)): yes
Abs Z Score Sum (Geno + RTV) (EV protein Plaa P27612): 12.45
Abs Z Score Sum (Geno + RTV) (EV protein Pld3 (Q35405)): 7.47
RTV Direction Opposite dE? (EV protein Pld3 (Q35405)): yes
Abs Z Score Sum (Geno + RTV) (EV protein Prep Q9QUR6): 8.56
Abs Z Score Sum (Geno + RTV) (EV protein Prpf8 (Q99PV0)): 11.34
Abs Z Score Sum (Geno + RTV) (EV protein Psmd1 (Q3TXS7)): 7.84
Abs Z Score Sum (Geno + RTV) (EV protein Pura (P42669)): 6.04
RTV Direction Opposite dE? (EV protein Pura (P42669)): yes
RTV Direction Opposite dE? (EV protein Q6X893, Choline transporter-like protein 1): yes
RTV Direction Opposite dE? (EV protein Q8BL97, Serine arginine-rich splicing factor 7): yes
RTV Direction Opposite dE? (EV protein Q8C878, NEDD8-activating enzyme E1 catalytic subunit): yes
Abs Z Score Sum (Geno + RTV) (EV protein Q8C878 NEDD8-activating enzyme .. subunit): 14.97
Abs Z Score Sum (Geno + RTV) (EV protein Q8CG19 Latent-transforming GF β-binding protein 1): 6.03
Abs Z Score Sum (Geno + RTV) (EV protein Q9D1M4 (Eukaryotic translation .. epsilon-1)): 20.67
RTV Direction Opposite dE? (EV protein Q9D1M4, Eukaryotic translation EF1 epsilon-1): yes
RTV Direction Opposite dE? (EV protein Q9FS30, Complement C1q tumor necrosis factor-related protein 3): yes
RTV Direction Opposite dE? (EV protein Q9Z1Z0, General vesicular transport factor p115): yes
Abs Z Score Sum (Geno + RTV) (EV protein Q9Z2X1 Heterogeneous nuclear ribonucleoprotein E): 12.02
RTV Direction Opposite dE? (EV protein Q78ZA7, Nucelosome assembly protein 1-like 4): yes
Abs Z Score Sum (Geno + RTV) (EV protein Q99KJ8 Dynactin subunit 2): 13.94
Abs Z Score Sum (Geno + RTV) (EV protein Q922B2 Aspartate--tRNA ligase): 12.17
Abs Z Score Sum (Geno + RTV) (EV protein Q01405 Protein transport protein .. 23A): 13.20
Abs Z Score Sum (Geno + RTV) (EV protein Q35737 Heterogeneous nuclear ribonucleoprotein H): 8.31
Abs Z Score Sum (Geno + RTV) (EV protein Q55023 Inositol monophosphatase 1): 14.51
RTV Direction Opposite dE? (EV protein Q60751, Insulin-like growth factor 1 receptor): yes
Abs Z Score Sum (Geno + RTV) (EV protein Q60972 Histone-binding protein RBBP4): 18.10
RTV Direction Opposite dE? (EV protein Q89051, Integral membrane protein 2B): yes
Abs Z Score Sum (Geno + RTV) (EV protein Qars (Q8BML9)): 13.17
RTV Direction Opposite dE? (EV protein Qars (Q8BML9)): yes
Abs Z Score Sum (Geno + RTV) (EV protein Rab6a (P35279)): 6.80
RTV Direction Opposite dE? (EV protein Rab6a (P35279)): yes
RTV Direction Opposite dE? (EV protein Rbbp4 (Q60972)): yes
Abs Z Score Sum (Geno + RTV) (EV protein Rpl22 (P67984)): 7.66
RTV Direction Opposite dE? (EV protein Rpl22 (P67984)): yes
Abs Z Score Sum (Geno + RTV) (EV protein S100a11 (P50543)): 8.18
RTV Direction Opposite dE? (EV protein S100a11 (P50543)): yes
Abs Z Score Sum (Geno + RTV) (EV protein Scarb2 (Q35114)): 3.91
RTV Direction Opposite dE? (EV protein Scarb2 (Q35114)): yes
RTV Direction Opposite dE? (EV protein Sec23a (Q01405)): yes
Abs Z Score Sum (Geno + RTV) (EV protein Sec31a (Q3..)): 8.41
Abs Z Score Sum (Geno + RTV) (EV protein Shrnt2 Q9CZN7): 11.93
Abs Z Score Sum (Geno + RTV) (EV protein Slc44a1 Q6X893): 3.67
Abs Z Score Sum (Geno + RTV) (EV protein Spp1 (P10923)): 11.35

Source: US20230332232A1, “COMPOSITIONS AND METHODS FOR DIAGNOSING AND TREATING A DYSTONIA” (Duke University, priority 2020, published 2023)
